Columns and labels:
Format in all cases: functional
[1] = Growth inhibition of human HCC2998 cells assessed as cell growth at 5X10'-7 M after 48 hrs by sulforhodamine B assay; conditions: HCC 2998, 48 h, read-out: Activity
DU-145 = test: Growth inhibition of human DU145 cells assessed as cell growth at 5X10'-9 M after 48 hrs by sulforhodamine B assay; conditions: DU-145, 48 h, read-out: Activity
[2] = Growth inhibition of human HCC2998 cells assessed as cell growth at 5X10'-8 M after 48 hrs by sulforhodamine B assay; conditions: HCC 2998, 48 h, read-out: Activity
786-0 [3] = test: Growth inhibition of human 786-0 cells assessed as cell growth at 5X10'-9 M after 48 hrs by sulforhodamine B assay; conditions: 786-0, 48 h, read-out: Activity
NCI-H460 = test: Growth inhibition of human NCI-H460 cells assessed as cell growth at 5X10'-5 M after 48 hrs by sulforhodamine B assay; conditions: NCI-H460, 48 h, read-out: Activity
SN12C = test: Growth inhibition of human SN12C cells assessed as cell growth at 5X10'-6 M after 48 hrs by sulforhodamine B assay; conditions: read-out: Activity
[4] = Growth inhibition of human HCC2998 cells assessed as cell growth at 5X10'-9 M after 48 hrs by sulforhodamine B assay; conditions: HCC 2998, 48 h, read-out: Activity
UACC-257 = test: Growth inhibition of human UACC257 cells assessed as cell growth at 5X10'-5 M after 48 hrs by sulforhodamine B assay; conditions: UACC-257, 48 h, read-out: Activity
[5] = Growth inhibition of human Hs 578T cells assessed as cell growth at 5X10'-8 M after 48 hrs by sulforhodamine B assay; conditions: read-out: Activity
T47D = test: Growth inhibition of human T47D cells assessed as cell growth at 5X10'-7 M after 48 hrs by sulforhodamine B assay; conditions: read-out: Activity
A549 = test: Growth inhibition of human A549/ATCC cells assessed as cell growth at 5X10'-8 M after 48 hrs by sulforhodamine B assay; conditions: A549, 48 h, read-out: Activity
SK-MEL-5 [6] = test: Growth inhibition of human SK-MEL-5 cells assessed as cell growth at 5X10'-5 M after 48 hrs by sulforhodamine B assay; conditions: SK-MEL-5, 48 h, read-out: Activity
SK-OV-3 [7] = test: Growth inhibition of human SKOV3 cells assessed as cell growth at 5X10'-8 M after 48 hrs by sulforhodamine B assay; conditions: SK-OV-3, 48 h, read-out: Activity
UO-31 [8] = test: Growth inhibition of human UO31 cells assessed as cell growth at 5X10'-8 M after 48 hrs by sulforhodamine B assay; conditions: UO-31, 48 h, read-out: Activity
UO-31 [9] = test: Growth inhibition of human UO31 cells assessed as cell growth at 5X10'-5 M after 48 hrs by sulforhodamine B assay; conditions: UO-31, 48 h, read-out: Activity
SF-268 [10] = test: Growth inhibition of human SF268 cells assessed as cell growth at 5X10'-8 M after 48 hrs by sulforhodamine B assay; conditions: SF-268, 48 h, read-out: Activity
SR = test: Growth inhibition of human SR cells assessed as cell growth at 5X10'-6 M after 48 hrs by sulforhodamine B assay; conditions: read-out: Activity
SK-MEL-28 = test: Growth inhibition of human SK-MEL-28 cells assessed as cell growth at 5X10'-5 M after 48 hrs by sulforhodamine B assay; conditions: SK-MEL-28, 48 h, read-out: Activity
HOP-62 = test: Growth inhibition of human HOP62 cells assessed as cell growth at 5X10'-9 M after 48 hrs by sulforhodamine B assay; conditions: HOP-62, 48 h, read-out: Activity
SNB-75 [11] = test: Growth inhibition of human SNB75 cells assessed as cell growth at 5X10'-9 M after 48 hrs by sulforhodamine B assay; conditions: SNB-75, 48 h, read-out: Activity
KM12 = test: Growth inhibition of human KM12 cells assessed as cell growth at 5X10'-9 M after 48 hrs by sulforhodamine B assay; conditions: KM12, 48 h, read-out: Activity
SNB-19 [12] = test: Growth inhibition of human SNB19 cells assessed as cell growth at 5X10'-7 M after 48 hrs by sulforhodamine B assay; conditions: SNB-19, 48 h, read-out: Activity
COLO 205 = test: Growth inhibition of human COLO205 cells assessed as cell growth at 5X10'-7 M after 48 hrs by sulforhodamine B assay; conditions: COLO 205, 48 h, read-out: Activity
786-0 [13] = test: Growth inhibition of human 786-0 cells assessed as cell growth at 5X10'-6 M after 48 hrs by sulforhodamine B assay; conditions: 786-0, 48 h, read-out: Activity
NCI-H322M = test: Growth inhibition of human NCI-H322M cells assessed as cell growth at 5X10'-7 M after 48 hrs by sulforhodamine B assay; conditions: read-out: Activity
HOP-92 = test: Growth inhibition of human HOP92 cells assessed as cell growth at 5X10'-7 M after 48 hrs by sulforhodamine B assay; conditions: HOP-92, 48 h, read-out: Activity
RXF 393 = test: Growth inhibition of human RXF393 cells assessed as cell growth at 5X10'-6 M after 48 hrs by sulforhodamine B assay; conditions: RXF 393, 48 h, read-out: Activity
CAKI-1 = test: Growth inhibition of human CAKI-1 cells assessed as cell growth at 5X10'-8 M after 48 hrs by sulforhodamine B assay; conditions: CAKI-1, 48 h, read-out: Activity
SK-OV-3 [14] = test: Growth inhibition of human SKOV3 cells assessed as cell growth at 5X10'-7 M after 48 hrs by sulforhodamine B assay; conditions: SK-OV-3, 48 h, read-out: Activity
MDA-MB-468 = test: Growth inhibition of human MDA-MB-468 cells assessed as cell growth at 5X10'-7 M after 48 hrs by sulforhodamine B assay; conditions: MDA-MB-468, 48 h, read-out: Activity
SK-MEL-5 [15] = test: Growth inhibition of human SK-MEL-5 cells assessed as cell growth at 5X10'-8 M after 48 hrs by sulforhodamine B assay; conditions: SK-MEL-5, 48 h, read-out: Activity
RPMI-8226 = test: Growth inhibition of human RPMI8226 cells assessed as cell growth at 5X10'-8 M after 48 hrs by sulforhodamine B assay; conditions: RPMI-8226, 48 h, read-out: Activity
BT-549 = test: Growth inhibition of human BT549 cells assessed as cell growth at 5X10'-6 M after 48 hrs by sulforhodamine B assay; conditions: BT-549, 48 h, read-out: Activity
SNB-19 [16] = test: Growth inhibition of human SNB19 cells assessed as cell growth at 5X10'-8 M after 48 hrs by sulforhodamine B assay; conditions: SNB-19, 48 h, read-out: Activity
SF-268 [17] = test: Growth inhibition of human SF268 cells assessed as cell growth at 5X10'-9 M after 48 hrs by sulforhodamine B assay; conditions: SF-268, 48 h, read-out: Activity
OVCAR-5 = test: Growth inhibition of human OVCAR5 cells assessed as cell growth at 5X10'-5 M after 48 hrs by sulforhodamine B assay; conditions: OVCAR-5, 48 h, read-out: Activity
SNB-75 [18] = test: Growth inhibition of human SNB75 cells assessed as cell growth at 5X10'-8 M after 48 hrs by sulforhodamine B assay; conditions: SNB-75, 48 h, read-out: Activity

COc1cc(-c2nn(-c3cccc(NC(=O)c4cccc(C(F)(F)F)c4)c3)cc2-c2ccncc2)ccc1Cl
growth at 0.5 µM [1]: 105%
growth at 0.005 µM (DU-145): 98%
growth at 0.05 µM [2]: 100%
growth at 0.005 µM (786-0 [3]): 95%
growth at 50 µM (NCI-H460): -10%
growth at 5 µM (SN12C): 41%
growth at 0.005 µM [4]: 92%
growth at 50 µM (UACC-257): 48%
growth at 0.05 µM [5]: 91%
growth at 0.5 µM (T47D): 84%
growth at 0.05 µM (A549): 98%
growth at 50 µM (SK-MEL-5 [6]): -51%
growth at 0.05 µM (SK-OV-3 [7]): 103%
growth at 0.05 µM (UO-31 [8]): 75%
growth at 50 µM (UO-31 [9]): 19%
growth at 0.05 µM (SF-268 [10]): 93%
growth at 5 µM (SR): -3%
growth at 50 µM (SK-MEL-28): 38%
growth at 0.005 µM (HOP-62): 95%
growth at 0.005 µM (SNB-75 [11]): 90%
growth at 0.005 µM (KM12): 100%
growth at 0.5 µM (SNB-19 [12]): 100%
growth at 0.5 µM (COLO 205): 102%
growth at 5 µM (786-0 [13]): 27%
growth at 0.5 µM (NCI-H322M): 87%
growth at 0.5 µM (HOP-92): 53%
growth at 5 µM (RXF 393): -17%
growth at 0.05 µM (CAKI-1): 98%
growth at 0.5 µM (SK-OV-3 [14]): 101%
growth at 0.5 µM (MDA-MB-468): 89%
growth at 0.05 µM (SK-MEL-5 [15]): 97%
growth at 0.05 µM (RPMI-8226): 98%
growth at 5 µM (BT-549): 34%
growth at 0.05 µM (SNB-19 [16]): 96%
growth at 0.005 µM (SF-268 [17]): 94%
growth at 50 µM (OVCAR-5): 31%
growth at 0.05 µM (SNB-75 [18]): 89%
